Key:
Format in all cases: functional, cell-based
[1] = tested on: A549; assay: Cytotoxicity against human A549 cells by MTT assay
[2] = tested on: Bel-7402; assay: Cytotoxicity against human Bel-7402 cells by MTT assay
[3] = tested on: BGC-823; assay: Cytotoxicity against human BGC-823 cells by MTT assay
[4] = tested on: HCT-8; assay: Cytotoxicity against human HCT8 cells by MTT assay
[5] = tested on: MCF7; assay: Cytotoxicity against human MCF7 cells by MTT assay

Measured: IC50

CC(=O)C1=C2[C@H](C(C)C)CC[C@@H](C)[C@@]2(O)CC1=O
> 10 µg/mL: all assays above

CC(=O)C1=C[C@@H]2[C@H](C(C)C)CC[C@@H](C)[C@]2(O)C1
> 10 µg/mL: all assays above

CC(C)[C@@H]1CC[C@@H](C)[C@@]2(O)C1=CC(=O)[C@@H]2C(C)O (stereo not given in full)
> 10 µg/mL: all assays above

CC(=O)C1=C2[C@@H](C)CC[C@H](C(C)C)[C@@]2(O)CC1=O
> 10 µg/mL: all assays above

CC(=O)[C@@H]1C[C@]2(O)[C@@H]([C@H]1O)[C@H](C(C)C)CC[C@H]2C
> 10 µg/mL: all assays above

CC(=O)[C@H]1C[C@]2(O)[C@@H]([C@@H]1O)[C@H](C(C)C)CC[C@H]2C
> 10 µg/mL: all assays above

— ChEMBL document CHEMBL1158050, “Minor sesquiterpenes with new carbon skeletons from the brown alga Dictyopteris divaricata” (J Nat Prod, 2006)
